Tests used:
[1] = target: T1, human HSD17B13 (Homo sapiens, UniProt Q7Z5P4); test: Substrate screening of steroid and bioactive lipid libraries against purified recombinant HSD17B13 (NADH-linked luciferase assay); assay type: biochemical; settings: for HSD17B13 Enzymatic Activity Relative Light Units: 500 μM NAD+, 100 ng enzyme, 3 hours at 23° C.; for HSD17B13 Enzymatic Activity Percent Estradiol Control: normalized to 50 μM estradiol after subtraction of 5% DMSO
T1 sequence (Q7Z5P4 20-300): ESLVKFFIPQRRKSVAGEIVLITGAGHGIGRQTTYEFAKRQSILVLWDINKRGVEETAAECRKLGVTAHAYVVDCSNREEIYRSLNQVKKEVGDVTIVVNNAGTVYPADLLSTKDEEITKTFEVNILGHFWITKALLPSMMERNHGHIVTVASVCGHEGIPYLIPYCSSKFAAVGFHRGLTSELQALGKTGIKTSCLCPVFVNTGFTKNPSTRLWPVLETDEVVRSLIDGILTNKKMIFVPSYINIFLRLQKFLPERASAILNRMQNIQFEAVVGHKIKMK
In short: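 Recombinant human HSD17B13 (100 ng) incubated 3 h at 23° C in 0.2 M Tris-HCl pH 7.5 with 500 μM NAD+ and 5 μM bioactive lipid or 50 μM steroid (5% DMSO). NADH measured by luciferase luminescence after 1 h; values as percent of 50 μM estradiol control after 5% DMSO subtraction.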

[2] = target: T2, HSD17B4 (Homo sapiens, UniProt P51659); test: Steroid substrate panel against HSD17B family member B4; assay type: biochemical; settings: substrate at 50 μM; estradiol set as 100%
T2 construct: made in house
T2 sequence (P51659 1-736): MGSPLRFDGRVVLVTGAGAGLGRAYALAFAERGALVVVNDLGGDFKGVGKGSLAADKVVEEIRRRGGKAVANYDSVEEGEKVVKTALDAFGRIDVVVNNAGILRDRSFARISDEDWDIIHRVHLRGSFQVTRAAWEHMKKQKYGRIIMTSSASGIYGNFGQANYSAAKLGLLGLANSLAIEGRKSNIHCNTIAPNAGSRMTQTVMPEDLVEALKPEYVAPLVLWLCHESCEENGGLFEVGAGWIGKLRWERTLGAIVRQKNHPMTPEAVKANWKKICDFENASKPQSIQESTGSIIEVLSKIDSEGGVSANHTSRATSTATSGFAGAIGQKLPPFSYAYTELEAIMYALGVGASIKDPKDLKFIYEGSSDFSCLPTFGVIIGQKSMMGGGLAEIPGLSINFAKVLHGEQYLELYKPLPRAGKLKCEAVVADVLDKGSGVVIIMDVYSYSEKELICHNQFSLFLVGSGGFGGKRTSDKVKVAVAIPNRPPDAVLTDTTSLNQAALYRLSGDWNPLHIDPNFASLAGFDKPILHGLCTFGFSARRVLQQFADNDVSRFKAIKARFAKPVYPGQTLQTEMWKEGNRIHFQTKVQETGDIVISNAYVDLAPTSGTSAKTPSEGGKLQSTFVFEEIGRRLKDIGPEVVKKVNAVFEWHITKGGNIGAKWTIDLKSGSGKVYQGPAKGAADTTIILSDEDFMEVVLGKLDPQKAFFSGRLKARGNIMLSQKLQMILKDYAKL
Protocol: (§1) To understand the functional consequences of premature truncation of the HSD17B13 protein due to rs72613567:TA (the associated variant, rs72613567, is an insertion of an adenine adjacent to the donor splice site of exon six (TA allele)), the enzymatic activity of isoforms A and D was evaluated in vitro using recombinant protein and nicotinamide […] dinucleotide as cofactor. Reactions were performed in a final volume of 40 μl of assay buffer (0.2 M Tris-HCl, pH 7.5) which contained 500 μM NAD^+, 5 μM bioactive lipid or 50 μM steroid (all in a final concentration of 5% DMSO), and 100 ng of recombinant human HSD17B13. Reactions were incubated for 3 hours, at 23° C., after which an equal volume detection reagent was added. Following a 1 hour incubation at 23° C., the relative light units (RLUs) were measured on an Envision Plate Reader (Perkin Elmer). Raw RLU values were normalized as percent of control (50 μM estradiol) following subtraction of negative control (5% DMSO) using the following formula: Percent of control (POC)=100×(Sample (RLU)−Negative CTRLaverage)/(Positive CTRLaverage−Negative CTRLaverage).
(§2) In order to determine specificity of compounds with inhibitory activity against HSD17B13, assays for selected members of the HSD17B family which includes HSD17B1-HSD17B14 were established. As a first step, selected family members were expressed, purified and tested for activity a using a steroid substrate panel. Substrates from the steroid panel were tested at 50 μM, using the standard assay protocol. Activity against the substrates for each HSD17B family member were normalized to Percent of Control (POC). The control, estradiol, was set as 100%.

[3] = target: T3, HSD17B11 (Homo sapiens, UniProt Q8NBQ5); test: Steroid substrate panel against HSD17B family member B11; assay type: biochemical; settings: substrate at 50 μM; estradiol set as 100%
T3 construct: made in house
T3 sequence (Q8NBQ5 20-300): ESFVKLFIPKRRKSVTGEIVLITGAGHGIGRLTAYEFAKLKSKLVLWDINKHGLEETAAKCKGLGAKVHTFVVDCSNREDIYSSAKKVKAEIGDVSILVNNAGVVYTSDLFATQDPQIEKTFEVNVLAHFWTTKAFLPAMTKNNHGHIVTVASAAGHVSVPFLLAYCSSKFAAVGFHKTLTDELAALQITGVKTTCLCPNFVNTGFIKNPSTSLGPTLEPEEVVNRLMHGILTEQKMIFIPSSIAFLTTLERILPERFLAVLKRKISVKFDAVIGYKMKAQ
Protocol: as §1, §2

[4] = target: T4, HEK293 cells overexpressing HSD17B13 isoform A (Homo sapiens, UniProt Q7Z5P4); test: HEK293 cell-based substrate consumption assay (LC-MS); settings: 1 μM substrate, 2 hours or 48 hours
T4 construct: expressed in transfected cells; host or cells: HEK293
T4 sequence (Q7Z5P4 20-300): T1 sequence (Q7Z5P4 20-300)

[5] = target: T5, HSD17B2 (Homo sapiens, UniProt P37059); test: Steroid substrate panel against HSD17B family member B2; assay type: biochemical; settings: substrate at 50 μM; estradiol set as 100%
T5 construct: made in house
T5 sequence (P37059 1-387): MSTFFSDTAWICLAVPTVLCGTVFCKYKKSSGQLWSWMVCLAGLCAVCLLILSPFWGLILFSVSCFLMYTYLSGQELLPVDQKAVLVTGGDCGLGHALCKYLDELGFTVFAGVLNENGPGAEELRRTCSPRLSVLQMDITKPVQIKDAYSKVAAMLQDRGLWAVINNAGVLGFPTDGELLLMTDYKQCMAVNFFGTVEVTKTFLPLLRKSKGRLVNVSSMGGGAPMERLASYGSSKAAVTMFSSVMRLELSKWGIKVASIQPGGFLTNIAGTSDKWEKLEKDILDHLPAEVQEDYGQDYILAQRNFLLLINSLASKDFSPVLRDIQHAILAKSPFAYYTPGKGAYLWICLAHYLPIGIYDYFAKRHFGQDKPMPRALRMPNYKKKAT
Protocol: as §1, §2

[6] = target: T6, HSD17B10 (Homo sapiens, UniProt Q99714); test: Steroid substrate panel against HSD17B family member B10; assay type: biochemical; settings: substrate at 50 μM; estradiol set as 100%
T6 construct: made in house
T6 sequence (Q99714 1-261): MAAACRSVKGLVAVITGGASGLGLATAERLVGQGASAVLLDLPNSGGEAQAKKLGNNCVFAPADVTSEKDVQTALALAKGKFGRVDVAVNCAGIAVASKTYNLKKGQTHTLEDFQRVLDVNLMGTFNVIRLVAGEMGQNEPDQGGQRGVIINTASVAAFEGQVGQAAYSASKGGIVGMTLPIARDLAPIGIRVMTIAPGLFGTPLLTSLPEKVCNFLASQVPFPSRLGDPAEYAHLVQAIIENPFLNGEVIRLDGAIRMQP
Protocol: as §1, §2

[7] = target: T7, HSD17B1 (Homo sapiens, UniProt P14061); test: Steroid substrate panel against HSD17B family member B1; assay type: biochemical; settings: substrate at 50 μM; estradiol set as 100%
T7 construct: made in house
T7 sequence (P14061 1-328): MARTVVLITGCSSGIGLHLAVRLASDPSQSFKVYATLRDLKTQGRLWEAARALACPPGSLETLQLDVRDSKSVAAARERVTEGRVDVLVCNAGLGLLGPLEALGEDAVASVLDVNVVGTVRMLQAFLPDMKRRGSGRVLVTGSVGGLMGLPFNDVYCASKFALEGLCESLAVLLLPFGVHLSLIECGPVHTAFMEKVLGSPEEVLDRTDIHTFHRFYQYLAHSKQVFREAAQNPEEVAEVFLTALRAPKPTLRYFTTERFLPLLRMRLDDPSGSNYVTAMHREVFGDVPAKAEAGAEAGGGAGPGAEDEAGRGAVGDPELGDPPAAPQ
Protocol: as §1, §2

[8] = target: T8, HSD17B5 (Homo sapiens, UniProt P42330); test: Steroid substrate panel against HSD17B family member B5; assay type: biochemical; settings: substrate at 50 μM; estradiol set as 100%
T8 construct: made in house
T8 sequence (P42330 1-323): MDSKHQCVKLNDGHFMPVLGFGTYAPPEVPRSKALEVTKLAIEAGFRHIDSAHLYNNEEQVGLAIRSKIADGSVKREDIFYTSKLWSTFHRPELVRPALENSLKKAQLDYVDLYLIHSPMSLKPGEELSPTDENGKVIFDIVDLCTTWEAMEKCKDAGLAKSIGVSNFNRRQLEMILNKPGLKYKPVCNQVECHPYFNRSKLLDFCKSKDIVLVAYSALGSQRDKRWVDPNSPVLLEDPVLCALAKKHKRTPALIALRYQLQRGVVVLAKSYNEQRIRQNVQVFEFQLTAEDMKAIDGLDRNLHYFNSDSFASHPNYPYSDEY
Protocol: as §1, §2

[9] = target: T7, HSD17B1; test: Cell-based assay of estrone to estradiol conversion by HSD17B1 (LC-MS); settings: over 48 hour period
Text: The capacity of HSD17B1 to convert estrone to estradiol, and the capacity of equilin to inhibit HSD17B1 was confirmed in a cell-based assay. Liquid chromatography and mass spectrometry (LC-MS) was used to measure estrone and estradiol concentration over time.

[10] = target: T9, recombinant HSD17B13 (E20-K300) (Homo sapiens, UniProt Q7Z5P4); test: Biochemical NADH-linked screen of bioactive lipids as substrates (Example 2); settings: 5 μM substrate, 100 μM NAD+, four hours at room temperature
T9 construct: recombinant HSD17B13 (E20-K300)
T9 sequence (Q7Z5P4 20-300): T1 sequence (Q7Z5P4 20-300)
Protocol: The biochemical assay described in Example 1 was repeated using bioactive lipids as substrates. In brief, 5 μM of each substrate was incubated in 40 μL reactions containing 1 μg of recombinant HSD17B13 (E20-K300) or beta-2 microglobulin (as a negative control) and 100 μM NAD^+ in 0.2M Tris-HCl, pH 7.5. After four hours of incubation at room temperature, 10 μL of each reaction was mixed with 10 μL luciferase and read, after 40 minutes, on an Envision Plate Reader (Perkin Elmer).

[11] = target: T1, human HSD17B13; test: Biochemical NADH-linked screen of compound libraries as substrates for HSD17B13 (Example 1); settings: 50 μM substrate, 0.5 mM NAD+, 24 hr at 25 degrees C.
Protocol: A biochemical assay was employed to screen the compounds from the library. The assay employed the following reaction conditions: 0.1 M Potassium phosphate buffer pH 7.5, 0.5 mM NAD^+, 50 μM substrate in DMSO 2% reaction volume or DMSO alone (no substrate) as a control, and 1 μl of purified enzyme or green fluorescent protein (GFP) as a control, with a final reaction volume of 100 microliters. Test samples were subject to a 24 hr incubation at 25 degrees C. After incubation, 20 μL reaction above+20 μL luciferase were incubated at room temperature for 1 h and read on an Envision Plate Reader (Perkin Elmer).

SMILES | HSD17B13 Enzymatic Activity Relative Light Units ([1]; Steroid Library, 50 μM steroid) [RLU] | HSD17B13 Enzymatic Activity Percent Estradiol Control ([1]; Steroid Library, 50 μM steroid) [%] | Percent of Control (POC), B4 [2] [%] | Percent of Control (POC), B11 [3] [%] | Percent of Control (POC), B2 [5] [%] | Percent of Control (POC), B10 [6] [%] | Percent of Control (POC), B1 [7] [%] | Percent of Control (POC), B5 [8] [%] | substrate for HSD17B13 [10] | further results
C[C@]12CCC(O)C[C@@H]1CC[C@@H]1[C@@H]2CC[C@]2(C)[C@@H](O)CC[C@@H]12 (stereo partly shown) [Androstanediol] | 488440 | 5.73 | 63.0 | 0.0 | 46.9 | 1.9 | 0.3 | 216 |  | conversion of substrate catalyzed by HSD17B13 in cells [4]: did not substantially catalyze the conversion
C[C@]12CC[C@H]3C(=CCc4cc(O)ccc43)[C@@H]1CCC2=O [Equilin] | 186840 | 0.46 |  |  |  |  |  |  |  | inhibition of conversion of estrone to estradiol by HSD17B1 [9]: can be inhibited by equilin
CCCCC/C=C\C[C@@H](O)/C=C/C=C/C=C\[C@@H](O)CCCC(=O)O [Leukotriene B4] |  |  |  |  |  |  |  |  | is a substrate | identified as enzymatic substrate of HSD17B13 ([1]; 265 unique putative substrates tested): enzymatic substrates; HSD17B13 Enzymatic Activity Relative Light Units ([1]; Bioactive Lipid Library, 5 μM bioactive lipid (Estradiol Control 50 μM)): 1743000 RLU; HSD17B13 Enzymatic Activity Percent Estradiol Control ([1]; Bioactive Lipid Library, 5 μM bioactive lipid): 115.40%
C[C@]12CC[C@@H](O)C[C@H]1CC[C@@H]1[C@@H]2C(=O)C[C@@]2(C)[C@H]1CC[C@]2(O)C(=O)CO [TetrahydroCortisone] | 232320 | 1.25 | 0.5 | 0.0 | 1.0 | 52.2 | 0.0 | 104 |  | 
C[C@]12CC[C@H]3[C@@H](CC[C@@]45O[C@@H]4C(O)=C(C#N)C[C@]35C)[C@@H]1CC[C@@H]2O [Trilostane] | 1896560 | 30.32 |  |  |  |  |  |  |  | suitability as substrate for HSD17B13 [11]: suitable substrates
CCCCCC[C@@H](O)C/C=C\CCCCCCCC(=O)O [ricinoleic acid] |  |  |  |  |  |  |  |  | identified as representative substrates | 

Source: patent US11479802B2, “Assays for screening activity of modulators of members of the hydroxy steroid (17-beta) dehydrogenase (HSD17B) family” (Regeneron Pharmaceuticals, Inc., priority 2017, dated 2022)
